The text below walks through data of patent publication US9771381B2, “Derivatives of 1-amino-2-cyclobutylethylboronic acid” (Millennium Pharmaceuticals, Inc., priority 2008, dated 2017).

The target of assay [1] is T1, human 20S proteasome (Homo sapiens, UniProt P28074).
T1 construct: purchased Boston Biochem
The experiment in a line: 20S Proteasome Assay. Type of assay: biochemical. Conditions: Ac-WLA-AMC substrate 15 μM, human PA28 activator 12 nM, human 20S proteasome 0.25 nM, 37° C., pH7.4.

Assay [2] concerns the target human 20S proteasome (Homo sapiens, UniProt P28072+P28074+Q99436). As to the kind of experiment: Proteasome Inhibition Kinetics (enzyme progress curves). As to conditions: human 20S proteasome 0.25 nM activated with 0.01% SDS, 37° C.; half-life determined from koff; read-out: dissociation half-life t1/2. Type of assay: biochemical. On the procedure: Enzyme kinetic parameters including dissociation constants and half lives were determined by analysis of enzyme progress curves as follows:
Proteasome inactivation measurements were obtained by monitoring individual progress curves for the hydrolysis of the site-specific fluorogenic 7-amido-4-methylcoumarin (AMC)-labeled peptide substrates (β5, Suc-LLVY-AMC; β2, Z-VLR-AMC, and β1, Z-LLE-AMC) at different inhibitor concentrations. Cleavage of the fluorogenic peptide was continuously monitored as a change in the fluorescence emission at 460 nm (λex=360 nm) and plotted as a function of time. All assays were performed in cuvettes with 2 mL of 50 mM HEPES (pH 7.5), 0.5 mM EDTA, at 37±0.2° C., and with continuous stirring. The concentrations of substrates varied from 10 to 25 μM (<½ KM). The concentration of human 20S proteasome was 0.25 nM and was activated with 0.01% SDS. The rate constant, kobs, describing the conversion from the initial velocity to the steady state velocity, were estimated by nonlinear least-squares regression analysis of the individual progress curves using the equation for time-dependent or slow-binding inhibition:
[formula] where F is fluorescence, vi and vs are the initial and steady state velocities of the reaction in the presence of inhibitor, and t is time. A plot of kobs as a function of [I] was made to obtain kon from the slope of the linear fit of the data. The apparent dissociation constant, K^appii, was determined by nonlinear least-fit of the fractional velocity, vs/vo, as a function of [I], were vs is the steady state value obtained from the time-dependent or slow-binding equation and vo is the initial velocity in the absence of inhibitor: […]
The dissociation constant Ki, was calculated from the apparent Ki using the following expression: […]
The off rate, koff, was mathematically calculated from the above determined parameters using the following relationship:
The half-life was then determined from the koff value using the following relationship: […]

The structures appear in SMILES notation. Bounds are passed on as bounds.

What is called IC50 is the concentration that inhibits the measured activity by half. Higher therefore signals lower potency. In turn, `O=C(N[C@@H](Cc1ccccc1)C(=O)N[C@@H](CC1CCC1)B(O)O)c1cc(Cl)ccc1Cl` [Compound 6, [(1R)-2-cyclobutyl-1-({(2S)-2-[(2,5-dichlorobenzoyl)amino]-3-phenylpropanoyl}amino)ethyl]boronic acid] displayed an IC50 on human 20S proteasome [1] of under 50 nM. Besides, the residence time on human 20S proteasome [2] fell in the range of 10 to 60 min.

As to `O=C(N[C@@H](CC1CCC1)B(O)O)[C@H](Cc1ccccc1)NS(=O)(=O)c1ccc(Oc2ccncc2)cc1` [Compound 43, ((1R)-2-cyclobutyl-1-{[(2S)-3-phenyl-2-({[4-(pyridin-4-yloxy)phenyl]sulfonyl}amino)propanoyl]amino}ethyl)boronic acid], the half-maximal inhibitory concentration (IC50) at human 20S proteasome [1] was under 50 nM. Further, the residence time on human 20S proteasome [2] was under 10 min.

Molecule `O=C(N[C@@H](CC1CCC1)B(O)O)[C@H](Cc1ccccc1)NS(=O)(=O)c1cc(Cl)ccc1Cl` [Compound 35, {(1R)-2-cyclobutyl-1-[((2S)-2-{[(2,5-dichlorophenyl)sulfonyl]amino}-3-phenylpropanoyl)amino]ethyl}boronic acid] gave a concentration for half-maximal inhibition (IC50) against human 20S proteasome [1] of under 50 nM. Further, the residence time at human 20S proteasome [2] was under 10 min.

Consider `O=C(N[C@@H](CC1CCC1)B(O)O)[C@H](Cc1ccccc1)NS(=O)(=O)c1ccc(Oc2ccccn2)cc1` [Compound 41, ((1R)-2-cyclobutyl-1-{[(2S)-3-phenyl-2-({[4-(pyridin-2-yloxy)phenyl]sulfonyl}amino)propanoyl]amino}ethyl)boronic acid], for which the IC50 on human 20S proteasome [1] is under 50 nM. Also, the residence time on human 20S proteasome [2] was under 10 min.

For the molecule `O=C(N[C@@H](CC1CCC1)B(O)O)[C@H](Cc1ccccc1)NS(=O)(=O)c1ccc(Oc2cccnc2)cc1` [Compound 45, ((1R)-2-cyclobutyl-1-{[(2S)-3-phenyl-2-({[4-(pyridin-3-yl-oxy)phenyl]sulfonyl}amino)propanoyl]amino}ethyl)boronic acid], the 50% inhibitory concentration (IC50) against human 20S proteasome [1] is under 50 nM. Further, the residence time at human 20S proteasome [2] is under 10 min.

Turning to `O=C(N[C@@H](Cc1ccccc1)C(=O)N[C@@H](CC1CCC1)B(O)O)c1cnccn1` [Compound 17, [(1R)-2-cyclobutyl-1-({(2S)-3-phenyl-2-[(pyrazin-2-ylcarbonyl)amino]propanoyl}amino)ethyl]boronic acid], the IC50 against human 20S proteasome [1] is under 50 nM. For the same molecule, at human 20S proteasome [2], the residence time was in the range of 10 to 60 min.

At human 20S proteasome [1], `O=C(N[C@@H](CC1CCC1)B(O)O)[C@H](Cc1ccccc1)NS(=O)(=O)c1ccc(-c2cnco2)cc1` [Compound 36, ((1R)-2-cyclobutyl-1-{[(2S)-2-({[4-(1,3-oxazol-5-yl)phenyl]sulfonyl}amino)-3-phenylpropanoyl]amino}ethyl)boronic acid] registered an IC50 of under 50 nM. Also, the residence time at human 20S proteasome [2] is under 10 min.

`O=C(N[C@@H](CC1CCC1)B(O)O)[C@H](Cc1ccccc1)NS(=O)(=O)c1ccc2ccccc2c1` [Compound 1, [(1R)-2-cyclobutyl-1-({(2S)-2-[(2-naphthylsulfonyl)amino]-3-phenylpropanoyl}amino)ethyl]boronic acid] came in with an IC50 at human 20S proteasome [1] of under 50 nM. Also, on human 20S proteasome [2], the residence time was under 10 min.

For the molecule `O=C(N[C@@H](Cc1ccccc1)C(=O)N[C@@H](CC1CCC1)B(O)O)c1cccnc1Oc1ccccc1` [Compound 2, {(1R)-2-cyclobutyl-1-[((2S)-2-{[(2-phenoxypyridin-3-yl)carbonyl]amino}-3-phenylpropanoyl)amino]ethyl}boronic acid], the IC50 against human 20S proteasome [1] was under 50 nM. Besides, the residence time on human 20S proteasome [2] is 10 to 60 min.

With `C[C@H](O)[C@H](NS(=O)(=O)c1ccc(Oc2ccccc2)nc1)C(=O)N[C@@H](CC1CCC1)B(O)O` [Compound 42, {(1R)-2-cyclobutyl-1-[((2S)-3-hydroxy-2-{[(6-phenoxypyridin-3-yl)sulfonyl]amino}butanoyl)amino]ethyl}boronic acid], the concentration for half-maximal inhibition (IC50) against human 20S proteasome [1] was 50 to 150 nM.

In the case of `O=C(N[C@@H](Cc1ccccc1)C(=O)N[C@@H](CC1CCC1)B(O)O)c1ccc2nc(-c3ccccc3)[nH]c2c1` [Compound 18, {(1R)-2-cyclobutyl-1-[((2S)-3-phenyl-2-{[(2-phenyl-1H-benzimidazol-6-yl)carbonyl]amino}propanoyl)amino]ethyl}boronic acid], on human 20S proteasome [1], the IC50 is under 50 nM.

As to `O=C1COc2cc(S(=O)(=O)N[C@@H](Cc3ccccc3)C(=O)N[C@@H](CC3CCC3)B(O)O)c(Cl)cc2N1` [Compound 32, {(1R)-1-[((2S)-2-{[(6-chloro-3-oxo-3,4-dihydro-2H-1,4-benzoxazin-7-yl)sulfonyl]amino}-3-phenylpropanoyl)amino]-2-cyclobutylethyl}boronic acid], the IC50 against human 20S proteasome [1] was under 50 nM.

`CC(=O)N[C@@H](CCc1ccccc1)C(=O)N[C@@H](Cc1ccccc1)C(=O)N[C@@H](CC1CCC1)B(O)O` [Compound 22, {(1R)-1-[((2S)-2-{[(2S)-2-(acetylamino)-4-phenylbutanoyl]amino}-3-phenylpropanoyl)amino]-2-cyclobutylethyl}boronic acid] yielded an IC50 against human 20S proteasome [1] of under 50 nM.

Turning to `CN1CCOc2ccc(S(=O)(=O)N[C@@H](Cc3ccccc3)C(=O)N[C@@H](CC3CCC3)B(O)O)cc21` [Compound 20, {(1R)-2-cyclobutyl-1-[((2S)-2-{[(4-methyl-3,4-dihydro-2H-1,4-benzoxazin-6-yl)sulfonyl]amino}-3-phenylpropanoyl)amino]ethyl}boronic acid], the IC50 on human 20S proteasome [1] was under 50 nM. In addition, on human 20S proteasome [2], the residence time was under 10 min.

`CC1(C)[C@@H]2C[C@H]3OB([C@H](CC4CCC4)NC(=O)[C@H](Cc4ccccc4)NC(=O)c4ccc(O)c(CN5CCOCC5)c4)O[C@@]3(C)[C@H]1C2` [Compound 10, N-[(1S)-1-benzyl-2-({(1R)-2-cyclobutyl-1-[(3aS,4S,6S,7aR)-3a,5,5-trimethylhexahydro-4,6-methano-1,3,2-benzodioxaborol-2-yl]ethyl}amino)-2-oxoethyl]-4-hydroxy-3-(morpholin-4-ylmethyl)benzamide] showed an IC50 on human 20S proteasome [1] of 50 to 150 nM.

Molecule `O=C(N[C@@H](CC1CCC1)B(O)O)[C@H](Cc1ccccc1)NS(=O)(=O)c1ccc(N2CCOCC2)nc1` [Compound 31, {(1R)-2-cyclobutyl-1-[((2S)-2-{[(6-morpholin-4-ylpyridin-3-yl)sulfonyl]amino}-3-phenylpropanoyl)amino]ethyl}boronic acid] showed an IC50 at human 20S proteasome [1] of under 50 nM.

The molecule `Cn1ccc2c(S(=O)(=O)N[C@@H](Cc3ccccc3)C(=O)N[C@@H](CC3CCC3)B(O)O)cccc21` [Compound 30, {(1R)-2-cyclobutyl-1-[((2S)-2-{[(1-methyl-1H-indol-4-yl)sulfonyl]amino}-3-phenylpropanoyl)amino]ethyl}boronic acid] registered an IC50 against human 20S proteasome [1] of under 50 nM.
